Measured values taken from ChEMBL document CHEMBL1130798, “Structure based design: novel spirocyclic ethers as nonpeptidal P2-ligands for HIV protease inhibitors” (Bioorg Med Chem Lett, 1998).

Assays:
[1] = target: Human immunodeficiency virus type 1 protease (Human immunodeficiency virus 1, UniProt Q72874); assay: Compound was evaluated for binding affinity against HIV protease
MT4 = assay: Compound was evaluated for the inhibition spread of HIV-1 in MT-4 human T-lymphoid cells infected with IIIB isolate; type: functional; conditions: read-out: ID50 (the source's name)

COc1ccc(S(=O)(=O)N(CC(C)C)C[C@@H](O)[C@H](Cc2ccccc2)NC(=O)[C@H]2C[C@]3(CCCO3)CCO2)cc1
Ki [1]: > 2000 nM

CCC[C@@]1(O)CCO[C@@H](C(=O)N[C@@H](Cc2ccccc2)[C@H](O)CN(CC(C)C)S(=O)(=O)c2ccc(OC)cc2)C1
Ki [1]: > 1000 nM

COc1ccc(S(=O)(=O)N(CC(C)C)C[C@@H](O)[C@H](Cc2ccccc2)NC(=O)[C@H]2C[C@@]3(CCCO3)CCO2)cc1
IC50 (MT4): 9100 nM
Ki [1]: 400 nM

CCC[C@]1(O)CCO[C@H](C(=O)N[C@@H](Cc2ccccc2)[C@H](O)CN(CC(C)C)S(=O)(=O)c2ccc(OC)cc2)C1
Ki [1]: > 1000 nM

COc1ccc(S(=O)(=O)N(CC(C)C)C[C@@H](O)[C@H](Cc2ccccc2)NC(=O)[C@@H]2C[C@]3(CCCO3)CCO2)cc1
IC50 (MT4): 4500 nM
Ki [1]: 150 nM

COc1ccc(S(=O)(=O)N(CC(C)C)C[C@@H](O)[C@H](Cc2ccccc2)NC(=O)C2CC3(CCCC3)CCO2)cc1 (stereo not given in full)
Ki [1]: 1500 nM

CCC[C@@]1(O)CCO[C@H](C(=O)N[C@@H](Cc2ccccc2)[C@H](O)CN(CC(C)C)S(=O)(=O)c2ccc(OC)cc2)C1
IC50 (MT4): > 10000 nM
Ki [1]: 480 nM

CC(C)(C)NC(=O)C1CC2CCCCC2CN1C[C@@H](O)[C@H](Cc1ccccc1)NC(=O)[C@H](CC(N)=O)NC(=O)c1ccc2ccccc2n1 (single isomer, unassigned)
IC50 (MT4): 18000 nM

CCC[C@]1(O)CCO[C@@H](C(=O)N[C@@H](Cc2ccccc2)[C@H](O)CN(CC(C)C)S(=O)(=O)c2ccc(OC)cc2)C1
IC50 (MT4): 3400 nM
Ki [1]: 150 nM

COc1ccc(S(=O)(=O)N(CC(C)C)C[C@@H](O)[C@H](Cc2ccccc2)NC(=O)[C@@H]2C[C@@]3(CCCO3)CCO2)cc1
IC50 (MT4): 2400 nM
Ki [1]: 20 nM
